From patent publication US10130651B2, “RNAi Therapy for Hepatitis B Virus Infection” (Arrowhead Pharmaceuticals, Inc., priority 2015, dated 2018)

Tests used:
Format in all cases: in vivo, NOD-SCID mice (pHBV model)
HBsAg, Hepatitis B Virus [1] = test: Serum HBsAg in pHBV mice after MLP delivery peptide plus AD01385 and/or AD01386 (Example 10, Tables 17, 18); settings: 3 mg/kg MLP delivery peptide plus […] of each RNAi trigger; for Mean HBsAg in serum: single IV
Protocol: At day −28, 6 to 8 week old female NOD.CB17-Prkdscid/NcrCrl (NOD-SCID) mice were transiently transfected in vivo with MC-HBV 1.3 by hydrodynamic tail vein injection as described.
CDM-NAG was added to MLP, SEQ ID NO: 650 (GIL MLP, L-form), in a 250 mM HEPES-buffered aqueous solution at a 5:1 (w/w) ratio at room temperature and incubated for 30 min to yield MLP delivery peptide. The reaction mixture was adjusted to pH 9.0 with 4 M NaOH. The extent of the reaction was assayed using 2,4,6-trinitrobenzene-sulfonic acid and determined to be >95%. MLP delivery peptide was purified by tangential flow in 10 mM bicarbonate buffer, pH 9.0, to which 10% dextran (w/w) was added. The final purified material was lyophilized.
5 mg lyophilized MLP delivery peptide was resuspended with 1 mL water. MLP delivery peptide was then combined with HBV RNAi triggers (AD01385 or AD01386) at the various dose levels.
At Day 1, each mouse was given a single IV administration via tail vein of 200 μl per 20 gram body weight of saline containing MLP delivery peptide+HBV RNAi triggers.
At various time points, before and after administration of MLP delivery peptide+HBV RNAi triggers, serum HBsAg and serum HBV DNA were measured. The HBsAg level in serum for each animal at a time point was divided by the pre-treatment level in that animal in order to determine the ratio of HBsAg in serum “normalized to pre-treatment”. The HBV DNA level in serum for each group at a time point was also divided by the pre-treatment level in that group in order to determine the ratio of HBV DNA in serum “normalized to pre-treatment”. In order to account for non-treatment related decline in expression of MC-HBV 1.3 or pHBV 1.3.—the “normalized to pre-treatment” ratio for an individual animal at a time point was then divided by the average “normalized to pre-treatment” ratio of all mice in the saline control group at the same time point to obtain the ratio of HBsAg, or HBV DNA, in serum “normalized to pre-treatment and control”.
Mice were anesthetized with 2-3% isoflurane and blood samples were collected from the submandibular area into serum separation tubes (Sarstedt AG & Co., Nümbrecht, Germany). Blood was allowed to coagulate at ambient temperature for 20 min. The tubes were centrifuged at 8,000×g for 3 min to separate the serum and stored at 4° C.
Serum Hepatitis B surface antigen (HBsAg) and Serum HBV DNA levels were measured as described.

[2] = test system: HBV DNA, Hepatitis B Virus; test: Serum HBV DNA in pHBV mice after MLP delivery peptide plus AD01385 and/or AD01386 (Example 10, Tables 19, 20); settings: 3 mg/kg MLP delivery peptide plus […] of each RNAi trigger; for Mean HBV DNA in serum: single IV
HBsAg, Hepatitis B Virus [3] = test: Serum HBsAg in pHBV mice after MLP delivery peptide plus AD01385 and/or AD01386 (Example 10, Tables 17, 18); settings: 3 mg/kg MLP delivery peptide plus […] of each RNAi trigger; for Mean HBsAg in serum: single IV; remark: listed apart in the source

| Substance | Mean HBsAg in serum (HBsAg, Hepatitis B Virus [1]; day 5) [ng/mL] | Mean HBsAg in serum (HBsAg, Hepatitis B Virus [1]; day 22) [ng/mL] | Mean HBsAg in serum (HBsAg, Hepatitis B Virus [1]; day 36) [ng/mL] | HBsAg in serum (mean ± SD) (normalized to pre-dose and saline control group) (HBsAg, Hepatitis B Virus [1]; day 5) | HBsAg in serum (mean ± SD) (normalized to pre-dose and saline control group) (HBsAg, Hepatitis B Virus [1]; day 8) | HBsAg in serum (mean ± SD) (normalized to pre-dose and saline control group) (HBsAg, Hepatitis B Virus [1]; day 15) | HBsAg in serum (mean ± SD) (normalized to pre-dose and saline control group) (HBsAg, Hepatitis B Virus [1]; day 22) | HBsAg in serum (mean ± SD) (normalized to pre-dose and saline control group) (HBsAg, Hepatitis B Virus [1]; day 29) | Mean HBV DNA in serum ([2]; day 5) | Mean HBV DNA in serum ([2]; day 8) | Mean HBV DNA in serum ([2]; day 15) | Mean HBV DNA in serum ([2]; day 22) | Mean HBV DNA in serum ([2]; day 29) | Mean HBV DNA in serum ([2]; day 36) | Mean HBV DNA in serum ([2]; day −2 (pre-dose)) | Mean HBV DNA in serum (normalized to pre-dose and saline control group) ([2]; day 5) | Mean HBV DNA in serum (normalized to pre-dose and saline control group) ([2]; day 8) | Mean HBV DNA in serum (normalized to pre-dose and saline control group) ([2]; day 15) | Mean HBV DNA in serum (normalized to pre-dose and saline control group) ([2]; day 22) | Mean HBV DNA in serum (normalized to pre-dose and saline control group) ([2]; day 29) | other results |
| --- | --- | --- | --- | --- | --- | --- | --- | --- | --- | --- | --- | --- | --- | --- | --- | --- | --- | --- | --- | --- | --- |
| AD01385: duplex AM02315-AS/AM02319-SS (TEG) (antisense TAUGAUAAAACGCCGCAGATT; sense UAUUCUGCGGCGUUUUAUCAUAT; siRNA; TEG, chemistry not fully specified) | 878 ± 697 | 2163 ± 1255 | 2067 ± 870 | 0.108 ± 0.026 | 0.282 ± 0.030 | 0.665 ± 0.135 | 0.589 ± 0.109 | 0.660 ± 0.175 | 9.84 × 10^6 copies/mL | 1.64 × 10^7 copies/mL | 7.69 × 10^7 copies/mL | 7.60 × 10^7 copies/mL | 7.69 × 10^7 copies/mL | 6.91 × 10^7 copies/mL | 2.04 × 10^8 copies/mL | 0.050 ± 0.000 | 0.087 ± 0.020 | 0.474 ± 0.029 | 0.510 ± 0.074 | 0.571 ± 0.034 | Mean HBV DNA in serum (normalized to pre-dose and saline control group) ([2]; day 36): 0.582 ± 0.040; Mean HBV DNA in serum (normalized to pre-dose and saline control group) ([2]; day −2 (pre-dose)): 1.000 ± 0.000; Mean HBsAg in serum (HBsAg, Hepatitis B Virus [3]; day 8): 1905 ± 1232 ng/mL; Mean HBsAg in serum (HBsAg, Hepatitis B Virus [3]; day 15): 2309 ± 1315 ng/mL; Mean HBsAg in serum (HBsAg, Hepatitis B Virus [3]; day 29): 2418 ± 1470 ng/mL; Mean HBsAg in serum (HBsAg, Hepatitis B Virus [3]; day −2 (pre-dose)): 7218 ± 4071 ng/mL; HBsAg in serum (mean ± SD) (normalized to pre-dose and saline control group) (HBsAg, Hepatitis B Virus [3]; day 36): 0.592 ± 0.140; HBsAg in serum (mean ± SD) (normalized to pre-dose and saline control group) (HBsAg, Hepatitis B Virus [3]; day −2 (pre-dose)): 1.000 ± 0.000 |
| AD01386: duplex AM02312-AS/AM02320-SS (C6) (antisense TACCAAUUUAUGCCUACAGTT; sense UAUCUGUAGGCAUAAAUUGGUAT; siRNA; C6, chemistry not fully specified) | 125 ± 98 | 738 ± 670 | 2252 ± 1565 | 0.021 ± 0.007 | 0.016 ± 0.008 | 0.078 ± 0.027 | 0.237 ± 0.041 | 0.526 ± 0.045 | 4.42 × 10^6 copies/mL | 2.37 × 10^6 copies/mL | 1.04 × 10^8 copies/mL | 4.94 × 10^7 copies/mL | 1.04 × 10^8 copies/mL | 9.53 × 10^7 copies/mL | 2.24 × 10^8 copies/mL | 0.020 ± 0.002 | 0.011 ± 0.002 | 0.153 ± 0.004 | 0.303 ± 0.048 | 0.710 ± 0.080 | Mean HBV DNA in serum (normalized to pre-dose and saline control group) ([2]; day 36): 0.728 ± 0.022; Mean HBV DNA in serum (normalized to pre-dose and saline control group) ([2]; day −2 (pre-dose)): 1.000 ± 0.000; Mean HBsAg in serum (HBsAg, Hepatitis B Virus [3]; day 8): 109 ± 120 ng/mL; Mean HBsAg in serum (HBsAg, Hepatitis B Virus [3]; day 15): 273 ± 321 ng/mL; Mean HBsAg in serum (HBsAg, Hepatitis B Virus [3]; day 29): 1627 ± 1487 ng/mL; Mean HBsAg in serum (HBsAg, Hepatitis B Virus [3]; day −2 (pre-dose)): 6219 ± 5606 ng/mL; HBsAg in serum (mean ± SD) (normalized to pre-dose and saline control group) (HBsAg, Hepatitis B Virus [3]; day 36): 0.808 ± 0.151; HBsAg in serum (mean ± SD) (normalized to pre-dose and saline control group) (HBsAg, Hepatitis B Virus [3]; day −2 (pre-dose)): 1.000 ± 0.000 |
